# Laboratory results published in patent US7989502B2, “Intranasal delivery of modafinil” (SRI International, priority 2009, dated 2011).
# Assays:
# rats = assay: Chronic sleep deprivation paradigm, EEG/EMG recordings and roto-rod performance; format: in vivo, rat; conditions: rats deprived of sleep 6 h on 3 consecutive days
# Method: In our chronic sleep deprivation paradigm rats are deprived of sleep for 6 h on 3 consecutive days starting at the beginning of the lights on period, when the pressure to sleep is maximal. The sleep deprivation begins with the administration of modafinil and is immediately followed by roto-rod testing. EEG/EMG recordings resumes once the rats are returned to the cage. If needed, the rats are kept awake for the remainder of the deprivation period by gentle handling. At the end of the sleep deprivation, the rats are again subjected to roto-rod testing. The sleep deprivation protocol is executed for 3 consecutive days. On the third day, half of the rats are sacrificed immediately following the sleep deprivation period. A second group of rats are sacrificed after 1-2 h of recovery sleep (RS). […]
# In this protocol, the intranasal delivery of modafinil is assayed by two behavioral indicies—EEG/EMG recordings of sleep-wakefulness and performance (wheel running, roto-rod assay). […] The EEG/EMG data is analyzed as detailed above. For the roto-rod testing, the amount of time each rat spends on the wheel is analyzed and compared to control. Qualitative and quantitative analysis sets are generated and descriptive statistical comparisons and two-way ANOVA with post hoc multiple comparisons are used to evaluate changes in behavior/wheel running as a function of the day and drug, assuming equal variances.
# healthy male subjects = assay: Intranasal modafinil in chronically sleep deprived humans (simulated military operation, 18 h continuous work); format: in vivo, human; conditions: 2, 10, 50 and 200 ug groups, VIANASE or OPTINOSE, given 9 h into the work period; versus LME-only and systemically-administered modafinil controls
# Method: 4. Efficacy of our intranasal drug delivery in chronically sleep deprived humans is also readily confirmed using established methods. Our preferred protocol is based on the results of a series of experiments that tested the treatment efficacy of a hypnotic-stimulant combination to maintain sleep quality, performance, and alertness (Batéjat, et al., Aviat Space Environ Med. 2006 May; 77(5):515-25). Here, healthy male subjects are given zolpidem then allowed to sleep for 6 h prior to being subjected to a simulated military operation of 18 h continuous work. Modafinil (2, 10, 50 and 200 ug dosage treatment groups) is administered using (a) VIANASE electronic atomizer (Bothell, Wash.) or (b) OPTINOSE nasal delivery system (Oslo, Norway) 9 h into the work period. The effects of drugs on sleep-wake behavior (EEG recordings), cortical activation (Critical Flicker Frequency test) and performance levels (reaction time, memory search, attention, dual task, computerized Stroop tests) are monitored.
# male Sprague Dawley rats = assay: Intranasal drug delivery snort model, EEG/EMG sleep-wake behavior in rats; format: in vivo, rat
# Method: Formulation of Intranasal Drugs. Modafinil (Sigma) was solubilized using LME comprised of equal amounts of olive oil and phosphatidyl serine sonicated in succinate buffer, pH 8; modafinil concentrations 0.2 and 2 mg/ml. Control rats received either saline alone or lipid emulsion in succinate buffer, pH 8
# Animals and surgery. Anesthetized male Sprague Dawley rats (250-350 g) were implanted with sleep recording electrodes to monitor electroencephalographic (EEG) and electromyographic (EMG) activities. A femoral vein catheter was also implanted and dorsally extended subcutaneously to exit at the posterior end of the EEG/EMG implant. The rats were individually housed in a controlled environment (12 h lights on/off; lights on, 8 am) with access to food and water ad libitum. The animals were allowed to recover for approximately 7-10 days following surgery and habituated to the recording chambers. Baseline behavior was continuously recorded for 48 to 60 h prior to experiment initiation and for at least 24 h post drug administration. Rats were sacrificed by pentobarbital administration (200 mg/kg, i.v.) into the femoral catheter without handling the animal, Greco et al., Neuroscience. 1999; 93(4):1369-74; Vazquez et al., J Cell Biochem. 2008 Dec. 15; 105(6):1472-84.
# Intranasal drug delivery—snort model. Three hours into the lights on period, each rat was anesthetized with ˜3% isoflurane in O2 and placed on its back. The head and neck of the rat remained flat and horizontal throughout the entire procedure to prevent any drug from draining down the back of the throat. Reflexes were monitored periodically and anesthetic level was reduced to ˜1.5% isoflurane in O2 for anesthesia maintenance. Each drug was given in 6-7 ul administered with a manual pipette every 2 minutes into alternating nostrils (total volume=50 ul). Two minutes after the last drop was administered, the rat was removed from anesthesia, reconnected to the tethering cable and placed in the recording chamber. The effect of intranasal drug delivery on sleep-wake behavior was monitored for 24 h post-intranasal drug delivery.
# Results. Rats awakened within one minute post modafinil administration. Control rats awoke within 3-5 minutes after termination of anesthesia. EEG and EMG activity during wakefulness, slow wave sleep (SWS), and rapid eye movement (REM) sleep were captured digitally, and subsequently scored manually in 10 sec epochs, averaged into one minute bins and represented graphically by hour for approximately 5 to 8 h post drug delivery. Representative individual hypnograms show the wake-promoting effects via intranasal delivery directly to the CNS. Modafinil induced wakefulness in rats at a 100-fold lower dose via our intranasal route than what has been previously published using traditional routes of administration (ie. i.v., oral).
# We designed protocols to further optimize concentrations of sleep and wake promoting drugs for intranasal delivery. In exemplary experiments, the drugs are administered to rats in the following concentrations: Modafinil: 0.2 mg/ml (n=3), 0.1 mg/ml (n=3), 0 (LME only, n=3), and the rats instrumented and tested as detailed above.
# Sleep Scoring and Statistical Analyses. EEG/EMG recordings are scored using SleepSign™ for Animals (Kissei Comtec, Irvine, Calif.), manually verified for accuracy and stored to disk. Waking is identified by the presence of desynchronized EEG readings and high EMG activity. SWS is identified by high amplitude slow waves together with a low EMG tone relative to waking. REM sleep is identified by the presence of regular theta activity coupled with low EMG relative to SWS. REM sleep is scored only when it follows at least a 15 s episode of SWS. All sleep-wake parameters are analyzed for each hour of the recording periods, then averaged to yield 24 h baseline estimates. A similar analysis is performed prior to and post intranasal drug administration. […]
compound,measurement,setting,value
NC(=O)C[S+]([O-])C(c1ccccc1)c1ccccc1 (stereo not drawn) [Modafinil],effectiveness of intranasal delivery under chronic stressful conditions,rats,Our results confirm the effectiveness of intranasal delivery of modafinil under chronic stressful conditions
same,performance and alertness throughout the 18 h work period,healthy male subjects,maintain elevated performance and alertness over LME-only negative controls and even over systemically-administered modafinil positive-controls
same,"effective dose, body-weight equivalent",male Sprague Dawley rats; 2.5 ug to a 350 g rat,7.14 µg/kg
same,translated human dose,"male Sprague Dawley rats; based on a human weighing 70 kg, from the rat effective dose",0.5 mg
same,effective dose administered,"male Sprague Dawley rats; in 50 ul of LME to a 350 g rat, intranasal",2.5 µg
same,"fold lower dose inducing wakefulness via intranasal route than published for traditional routes (i.v., oral)","male Sprague Dawley rats; rat, intranasal LME",100 fold
same,time to awakening post modafinil administration,"male Sprague Dawley rats; rat, intranasal snort delivery in LME under isoflurane anesthesia, control rats awoke within 3-5 minutes after termination of anesthesia",one
same,effective concentration of modafinil in the lipid microemulsion,"male Sprague Dawley rats; rat, intranasal, 50 ul of LME",0.05 mg/mL
same,effect of attempting to deliver an intranasal dose comparable to that given orally,"male Sprague Dawley rats; rat, under isoflurane anesthesia",the excitatory effects overcame the anesthesia and the animals woke up
